Patent publication US12458621B1, “Application of genipin beta-methyl derivative gen-17 in preparation of drug for prevention and treatment of acute severe pneumonia” (KUNMING MEDICAL UNIVERSITY, priority 2024, dated 2025)

What was measured:
Type in all cases: in vivo, Kunming mice
NF-κB p65 = NF-κB p65 protein in lung tissue by WB
Protocol: (§1) A total of 144 SPF-grade healthy Kunming mice, aged 5-7 weeks and weighing 18-22 g, are weighed and randomly allocated into six experimental groups: control group (NS), model group (LPS), dexamethasone group (DEX, […] per kilogram abbreviated as mg/kg), genipin beta-methyl derivative low-dose group (12.5 mg/kg), genipin beta-methyl derivative medium-dose group (25 mg/kg), and genipin beta-methyl derivative high-dose group (50 mg/kg), 24 animals per group, in which 12 animals are used to take lung tissue for the detection of other indicators, and another 12 animals are used to collect BALF. […]
(§2) Samples are collected 24 hours after the animal model is established. […] Lung tissues are collected and the whole lung wet weight is measured. […] After tidying, the lungs are photographed, excess tissues such as the trachea are cleared away, and the wet weight of the whole lung is measured to calculate the lung index. • (3) The upper lobe of the left lung is fixed in 4% neutral paraformaldehyde, fixed for 24 hours, paraffin-embedded and sectioned for HE staining. • (4) The remaining lung tissues are put into centrifugal tubes separately, quickly frozen in liquid nitrogen, and then stored at −80° C. after the experiment, which is used for the detection of MDA, SOD, western blotting (WB) and reverse transcription polymerase chain reaction (RT-PCR). […]

Nrf2 = Nrf2 protein in lung tissue by WB
Protocol: The dosage is converted according to the weight of the mice, and the gavage volume is 20 milliliters per kilogram (mL/kg), and the gavage is continued for 3 days. One hour after the gavage on the third day, the ALI model is established by tracheal instillation of LPS solution. […] After the mice are awake, they are raised as usual. 2.3 Treatment of Experimental Animals and Collection of Lung Tissue Specimens
Samples are collected 24 hours after the animal model is established. The mice are weighed and 12 mice in each group are sacrificed. Lung tissues are collected and the whole lung wet weight is measured. […] After tidying, the lungs are photographed, excess tissues such as the trachea are cleared away, and the wet weight of the whole lung is measured to calculate the lung index. • (3) The upper lobe of the left lung is fixed in 4% neutral paraformaldehyde, fixed for 24 hours, paraffin-embedded and sectioned for HE staining. • (4) The remaining lung tissues are put into centrifugal tubes separately, quickly frozen in liquid nitrogen, and then stored at −80° C. after the experiment, which is used for the detection of MDA, SOD, western blotting (WB) and reverse transcription polymerase chain reaction (RT-PCR). […]
(§3) The lung tissue is taken out from −80° C., and its weight is accurately measured. […]

[1] = test system: p38 phosphorylated protein; test: p38 phosphorylated protein in lung tissue by WB
Protocol: (§4) A total of 144 SPF-grade healthy Kunming mice, aged 5-7 weeks and weighing 18-22 g, are weighed and randomly allocated into six experimental groups: control group (NS), model group (LPS), dexamethasone group (DEX, […] per kilogram abbreviated as mg/kg), genipin beta-methyl derivative low-dose group (12.5 mg/kg), genipin beta-methyl derivative medium-dose group (25 mg/kg), and genipin beta-methyl derivative high-dose group (50 mg/kg), 24 animals per group, in which 12 animals are used to take lung tissue for the detection of other indicators, and another 12 animals are used to collect BALF.
(§5) All mice are gavaged with a same volume of 0.9% normal saline once a day in the NS group and the LPS group, DEX solution (0.39 mg/kg) is gavaged once a day in the DEX group, low-dose Gen-17 solution (12.5 mg/kg) is gavaged once a day in the medium-dose Gen-17 group, medium-dose Gen-17 solution (25 mg/kg) is gavaged once a day in the high-dose Gen-17 group, and high-dose Gen-17 solution (50 mg/kg) is gavaged once a day in the high-dose Gen-17 group. The dosage is converted according to the weight of the mice, and the gavage volume is 20 milliliters per kilogram (mL/kg), and the gavage is continued for 3 days. […]
as §2, §3

IL-6 [2] = test: IL-6 content in BALF by ELISA
Protocol: as §4
as §5, with “days. One hour after the gavage on the third day, the ALI model is established by tracheal instillation of LPS solution.” for “days.”

IL-6 [3] = test: IL-6 mRNA in lung tissue by qRT-PCR
Protocol: as §1, §2

[4] = test system: JNK phosphorylated protein; test: JNK phosphorylated protein in lung tissue by WB
Protocol: as §1, §2

IKKα/β = IKKα/β mRNA in lung tissue by qRT-PCR; conditions: Gen-17 (12.5, 25, 50 mg/kg gavage) compared with LPS group (P<0.001)
Protocol: as §1, §2

MDA = MDA content in lung tissue; conditions: after drug treatment, compared with LPS group
Protocol: as §1, §2

[5] = after drug treatment, compared with LPS group

COC(=O)C1=CO[C@@H](OC)[C@@H]2C(COC(=O)c3cccc(Br)c3)=CC[C@H]12 [Gen-17, genipin beta-methyl derivative]
expression of NF-κB p65 protein in lung tissue (NF-κB p65; Gen-17 groups (12.5, 25, 50 mg/kg gavage) compared with NS group (P<0.001, P<0.05)): significantly increased | expression of NF-κB p65 protein in lung tissue (NF-κB p65; after drug treatment, compared with LPS group (P<0.05)): down-regulate the expression of NF-κB p65 protein | expression of Nrf2 protein in lung tissue, overall result (Nrf2; Gen-17 12.5, 25, 50 mg/kg gavage, ALI mice): upregulate the expression of Nrf2 and HO-1 protein | expression of Nrf2 protein in lung tissue (increase) (Nrf2; medium-dose Gen-17 25 mg/kg gavage, compared with LPS group (P<0.05)): statistically significant | expression of phosphorylated protein p38 in lung tissue ([1]; Gen-17 groups (12.5, 25, 50 mg/kg gavage) compared with DEX group (P>0.05)): no statistically significant change | expression of p38 phosphorylated protein in lung tissue [1, 5]: down-regulate the expression of p38, ERK and JNK proteins | expression of p38 phosphorylated protein in lung tissue, statistical significance of decrease ([1]; low-dose Gen-17 12.5 mg/kg gavage, compared with LPS group, excepted from significance (P<0.05)): except for the low-dose Gen-17 group | content of IL-6 in BALF (IL-6 [2]; Gen-17 groups (12.5, 25, 50 mg/kg gavage) compared with LPS group): reduce the contents of inflammatory cytokines | IL-6 level in BALF (IL-6 [2]; low-dose Gen-17 12.5 mg/kg gavage, compared with DEX group (P<0.01)): statistically significant reduction | mRNA expression of IL-6 in lung tissue (IL-6 [3]; Gen-17 (12.5, 25, 50 mg/kg gavage) compared with LPS group (P<0.001)): significantly reduce the expression | mRNA expression of IL-6 in lung tissue (IL-6 [3]; low-dose Gen-17 12.5 mg/kg gavage, compared with DEX group (P<0.001)): statistical significance | expression of JNK phosphorylated protein in lung tissue [4, 5]: down-regulate the expression of p38, ERK and JNK proteins | expression of JNK phosphorylated protein in lung tissue ([4]; low-dose Gen-17 12.5 mg/kg gavage, compared with DEX group): statistically significant (P<0.05) | mRNA expression of IKKα/β in lung tissue (IKKα/β): significantly reduce the expression | MDA content in the lung tissue homogenate (MDA): reduce the MDA content
